This is an account of results in patent US9827312B2, “Method for carrying therapeutic substances into cells” (MAGFORCE AG, priority 2005, dated 2017).

What all share (details): procedure of example 2
Assay [1] deals with breast carcinoma cell lines BT20. In words: Increase in the activity of cytostatics with nanoparticles (Table 1), BT20. Format: cell-based, human. The method, then:
(§1) The experiments in vitro were carried out with the cell lines BT20 (breast carcinoma) and WiDr (colon carcinoma). The tumor cells were taken from tumor tissue of a patient and cultivated as described in DE 199 12 798 C1. 2×10^6 cells, respectively, were prepared in a 75 cm^3 cell culture bottle with 25 ml of cell culture medium (RPMI+10% FBS+1.2 ml of pyruvate for WiDr cells, or respectively BME+10% FBS+pyruvate+5 ml of non-essential amino acids+5 ml glutamine for BT20 cells) for testing the efficacy of the cefamandole/nanoparticle mixture. 136 μl of magnetic fluid MFL AS M01 (iron oxide nanoparticle coated with polycondensed N-(2-aminoethyl)-3-(trimethoxysilyl)propylamine, manufacturer: MagForce Nanotechnologies GmbH, Berlin, Germany) (cFe=2 mol/l) and 390 μl of cefamandole solution (stock solution 1 mg/ml in 0.9% NaCl) were added to said cell suspension.
(§2) Corresponding to the experiment procedure according to example 2, the following […] were tested in vitro with the active ingredients listed in table 1: a) glioblastoma human cell line RUSIRS 1; b) breast carcinoma cell lines BT20; c) colon carcinoma cell line WiDR; d) bronchial carcinoma cells NSCLC, e) rectal carcinoma cells and f) prostate carcinoma cell line DU 145.
(§3) In all cases, an increased activity of the cytostatic could be observed. The increase in activity is indicated in parentheses after the respective cytostatic, wherein (+) means an increase of about 5% to 80% and (++) means an increase of 80% to 500%.

For the next assay, the system named is rectal carcinoma cells. In words: Increase in the activity of cytostatics with nanoparticles (Table 1), rectal carcinoma. Format: cell-based. The procedure:
as §1, §2, §3

A further assay has as its system neuroglioma cell line H4. Description: Increase in the activity of cytostatics with nanoparticles (Table 1), H4. The format is cell-based. The procedure:
as §1, §2, §3

The test system of assay [2] is bronchial carcinoma cells NSCLC. In words: Increase in the activity of cytostatics with nanoparticles (Table 1), NSCLC. The format is cell-based. The procedure:
as §1, §2, §3

In assay [3] the test system is glioblastoma human cell line RUSIRS1. Description: Increase in the activity of cytostatics with nanoparticles (Table 1), RUSIRS1. Format: cell-based. The procedure: as §1, §2, §3
The test system of assay [4] is colon carcinoma cell line WiDr. Description: Increase in the activity of cytostatics with nanoparticles (Table 1), WiDr. The format is cell-based, human. The method, then:
as §1, §2, §3

In assay [5] the test system is prostate carcinoma cell line DU 145. Description: Increase in the activity of cytostatics with nanoparticles (Table 1), DU 145. Format: cell-based. The procedure: as §1, §2, §3

As to `N.N.[Cl][Pt][Cl]` [cisplatin], the “increase in the activity of cytostatics” value is listed as “(+) ((+) means an increase of about 5% to 80%)” in assay [1]; “(+) ((+) means an increase of about 5% to 80%)” in the assay on rectal carcinoma cells; “(++) ((++) means an increase of 80% to 500%)” with neuroglioma cell line H4; “(++) ((++) means an increase of 80% to 500%)” in assay [2]; “(+) ((+) means an increase of about 5% to 80%)” in assay [3]; “(+) ((+) means an increase of about 5% to 80%)” in assay [4]. In addition, the “increase in the activity of cytostatics” value in assay [5] is on record as “(+) ((+) means an increase of about 5% to 80%)”.

As to `Nc1nc(O)c2ncn(COC(CO)CO)c2n1` [ganciclovir], the “increase in the activity of cytostatics” value in assay [1] was “(+) ((+) means an increase of about 5% to 80%)”; in the assay on rectal carcinoma cells, “(+) ((+) means an increase of about 5% to 80%)”; in the assay with neuroglioma cell line H4, “(+) ((+) means an increase of about 5% to 80%)”; in assay [2] it was “(+) ((+) means an increase of about 5% to 80%)”; in assay [3], “(++) ((++) means an increase of 80% to 500%)”; in assay [4], “(+) ((+) means an increase of about 5% to 80%)”. The “increase in the activity of cytostatics” value in assay [5] is listed as “(+) ((+) means an increase of about 5% to 80%)”.

As for `Nc1ccn([C@@H]2O[C@H](CO)[C@@H](O)C2(F)F)c(=O)n1` [gemcitabine], the “increase in the activity of cytostatics” value was “(+) ((+) means an increase of about 5% to 80%)” in assay [1]; “(+) ((+) means an increase of about 5% to 80%)” with rectal carcinoma cells; “(+) ((+) means an increase of about 5% to 80%)” in the assay with neuroglioma cell line H4; “(++) ((++) means an increase of 80% to 500%)” in assay [2]; “(+) ((+) means an increase of about 5% to 80%)” in assay [3]; “(+) ((+) means an increase of about 5% to 80%)” in assay [4]. For the same compound, in assay [5], the “increase in the activity of cytostatics” value is “(+) ((+) means an increase of about 5% to 80%)”.

In the case of `CC(C)Cc1ccc(C(C)C(=O)O)cc1` (centres unmarked) [ibuprofen], the “increase in the activity of cytostatics” value is “(+) ((+) means an increase of about 5% to 80%)” in assay [1]; “(+) ((+) means an increase of about 5% to 80%)” in the assay with rectal carcinoma cells; “(+) ((+) means an increase of about 5% to 80%)” with neuroglioma cell line H4; “(+) ((+) means an increase of about 5% to 80%)” in assay [2]; “(+) ((+) means an increase of about 5% to 80%)” in assay [3]; “(++) ((++) means an increase of 80% to 500%)” in assay [4]. For the same compound, the “increase in the activity of cytostatics” value in assay [5] is “(+) ((+) means an increase of about 5% to 80%)”.

As to `CC(=O)[C@]1(O)Cc2c(O)c3c(c(O)c2[C@@H](O[C@H]2C[C@H](N)[C@H](O)[C@H](C)O2)C1)C(=O)c1ccccc1C3=O` [idarubicin], the “increase in the activity of cytostatics” value in assay [1] is given as “(+) ((+) means an increase of about 5% to 80%)”; in the assay on rectal carcinoma cells, “(+) ((+) means an increase of about 5% to 80%)”; in the assay with neuroglioma cell line H4, “(+) ((+) means an increase of about 5% to 80%)”; in assay [2], “(++) ((++) means an increase of 80% to 500%)”; in assay [3], “(++) ((++) means an increase of 80% to 500%)”; in assay [4] it was “(+) ((+) means an increase of about 5% to 80%)”. Besides, in assay [5], the “increase in the activity of cytostatics” value is “(+) ((+) means an increase of about 5% to 80%)”.

With `Cc1ccc(NC(=O)c2ccc(CN3CCN(C)CC3)cc2)cc1Nc1nccc(-c2cccnc2)n1` [imatinib], the “increase in the activity of cytostatics” value in assay [1] is recorded as “(+) ((+) means an increase of about 5% to 80%)”; with rectal carcinoma cells, “(+) ((+) means an increase of about 5% to 80%)”; in the assay on neuroglioma cell line H4, “(+) ((+) means an increase of about 5% to 80%)”; in assay [2], “(+) ((+) means an increase of about 5% to 80%)”; in assay [3] it was “(+) ((+) means an increase of about 5% to 80%)”; in assay [4], “(++) ((++) means an increase of 80% to 500%)”. In addition, in assay [5], the “increase in the activity of cytostatics” value was “(+) ((+) means an increase of about 5% to 80%)”.

Consider `Cc1oncc1C(=O)Nc1ccc(C(F)(F)F)cc1` [leflunomide], for which the “increase in the activity of cytostatics” value (in assay [1]; in the assay on rectal carcinoma cells; in the assay with neuroglioma cell line H4; in assay [2]; in assay [3]; in assay [4]) was “(+) ((+) means an increase of about 5% to 80%)” in each case. The “increase in the activity of cytostatics” value in assay [5] is recorded as “(+) ((+) means an increase of about 5% to 80%)”.

For `N#Cc1ccc(C(c2ccc(C#N)cc2)n2cncn2)cc1` [letrozole], the “increase in the activity of cytostatics” value (in assay [1]; in the assay on rectal carcinoma cells; with neuroglioma cell line H4; in assay [2]; in assay [3]; in assay [4]) was “(+) ((+) means an increase of about 5% to 80%)” throughout. Further, the “increase in the activity of cytostatics” value in assay [5] was “(+) ((+) means an increase of about 5% to 80%)”.

For the compound `Cc1onc(-c2ccccc2)c1C(=O)N[C@@H]1C(=O)N2[C@@H]1SC(C)(C)[C@@H]2C(=O)O` [oxacillin], the “increase in the activity of cytostatics” value in assay [1] is on record as “(+) ((+) means an increase of about 5% to 80%)”; in the assay with rectal carcinoma cells it was “(+) ((+) means an increase of about 5% to 80%)”; with neuroglioma cell line H4 it was “(+) ((+) means an increase of about 5% to 80%)”; in assay [2] it was “(+) ((+) means an increase of about 5% to 80%)”; in assay [3] it was “(+) ((+) means an increase of about 5% to 80%)”; in assay [4], “(++) ((++) means an increase of 80% to 500%)”. For the same compound, the “increase in the activity of cytostatics” value in assay [5] is given as “(++) ((++) means an increase of 80% to 500%)”.

Regarding `CC(=O)O[C@H]1C(=O)[C@@]2(C)[C@H]([C@H](OC(=O)c3ccccc3)[C@]3(O)C[C@H](OC(=O)[C@H](O)[C@@H](NC(=O)c4ccccc4)c4ccccc4)C(C)=C1C3(C)C)[C@]1(OC(C)=O)CO[C@@H]1C[C@@H]2O` [paclitaxel], the “increase in the activity of cytostatics” value is “(++) ((++) means an increase of 80% to 500%)” in assay [1]; “(+) ((+) means an increase of about 5% to 80%)” in the assay with rectal carcinoma cells; “(+) ((+) means an increase of about 5% to 80%)” in the assay with neuroglioma cell line H4; “(+) ((+) means an increase of about 5% to 80%)” in assay [2]; “(+) ((+) means an increase of about 5% to 80%)” in assay [3]; “(+) ((+) means an increase of about 5% to 80%)” in assay [4]. Besides, the “increase in the activity of cytostatics” value in assay [5] is “(+) ((+) means an increase of about 5% to 80%)”.

In the case of `CO[C@H]1C[C@@H]2CC[C@@H](C)[C@@](O)(O2)C(=O)C(=O)N2CCCC[C@H]2C(=O)O[C@H]([C@H](C)C[C@@H]2CC[C@@H](O)[C@H](OC)C2)CC(=O)[C@H](C)/C=C(\C)[C@@H](O)[C@@H](OC)C(=O)[C@H](C)C[C@H](C)/C=C/C=C/C=C/1C` [rapamycin], the “increase in the activity of cytostatics” value is reported as “(++) ((++) means an increase of 80% to 500%)” in assay [1]; “(++) ((++) means an increase of 80% to 500%)” in the assay with rectal carcinoma cells; “(+) ((+) means an increase of about 5% to 80%)” with neuroglioma cell line H4; “(+) ((+) means an increase of about 5% to 80%)” in assay [2]; “(+) ((+) means an increase of about 5% to 80%)” in assay [3]; “(+) ((+) means an increase of about 5% to 80%)” in assay [4]. The “increase in the activity of cytostatics” value in assay [5] is listed as “(+) ((+) means an increase of about 5% to 80%)”.
